Laboratory results from the supplement of paper PMC10307832.

Assays:
Experiment in all cases: relative viability (nuclei count vs DMSO), 5 days (fraction); higher = more cells survive
[1] = system: NCI-H522
Summary of the method: (§1)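 The day after seeding in 1536-well plates, lung cancer cell lines were treated by pin tool with a single drug, or with a fixed anchor-drug dose together with five library-drug doses (not always all listed) in √10 steps. After 5 days, a combined fix-and-stain solution (final 0.05% Triton X-100, 1% formaldehyde, 1 ug/ml Hoechst) was added. Nuclei counted on 4× images gave relative viability as treated counts over vehicle counts, reported as the median of duplicate plates.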

[2] = system: NCI-H2170
Summary of the method: as §1

[3] = system: NCI-H1355
Summary of the method: as §1

[4] = system: COR-L23
Summary of the method: as §1

[5] = system: NCI-H2347
Summary of the method: as §1

[6] = system: NCI-H1734
Summary of the method: as §1

[7] = system: NCI-H1755
Summary of the method: as §1

[8] = system: NCI-H358
Summary of the method: as §1

[9] = system: NCI-H838
Summary of the method: as §1

[10] = system: COR-L 105
Summary of the method: as §1

[11] = system: NCI-H1993
Summary of the method: as §1

[12] = system: NCI-H2009
Summary of the method: as §1

[13] = system: UMC-11
Summary of the method: as §1

[14] = system: NCI-H647
Summary of the method: as §1

[15] = system: NCI-H1793
Summary of the method: as §1

[16] = system: HCC-15
Summary of the method: as §1

[17] = system: HARA
Summary of the method: as §1

[18] = system: NCI-H1395
Summary of the method: as §1

[19] = system: NCI-H1792
Summary of the method: as §1

[20] = system: SK-MES-1
Summary of the method: as §1

CC(=O)O[C@@]12CO[C@@H]1C[C@H](O)[C@@]1(C)C(=O)[C@H](O)C3=C(C)[C@@H](OC(=O)[C@H](O)[C@@H](NC(=O)OC(C)(C)C)c4ccccc4)C[C@@](O)([C@@H](OC(=O)c4ccccc4)[C@H]21)C3(C)C [Docetaxel] + Nc1ncn([C@H]2C[C@H](O)[C@@H](CO)O2)c(=O)n1 [Decitabine] (partner 2 µM)
relative viability ([1]; first compound 0.0002 µM): 0.641
relative viability ([1]; first compound 0.000632 µM): 0.571
relative viability ([1]; first compound 0.002 µM): 0.586
relative viability ([1]; first compound 0.006325 µM): 0.448
relative viability ([1]; first compound 0.02 µM): 0.377
relative viability ([2]; first compound 0.0002 µM): 0.472
relative viability ([2]; first compound 0.000632 µM): 0.437
relative viability ([2]; first compound 0.002 µM): 0.371
relative viability ([2]; first compound 0.006325 µM): 0.172
relative viability ([2]; first compound 0.02 µM): 0.151
relative viability ([3]; first compound 0.0002 µM): 0.35
relative viability ([3]; first compound 0.000632 µM): 0.365
relative viability ([3]; first compound 0.002 µM): 0.286
relative viability ([3]; first compound 0.006325 µM): 0.276
relative viability ([3]; first compound 0.02 µM): 0.179
relative viability ([4]; first compound 0.0002 µM): 0.39
relative viability ([4]; first compound 0.000632 µM): 0.443
relative viability ([4]; first compound 0.002 µM): 0.291
relative viability ([4]; first compound 0.02 µM): 0.121
relative viability ([5]; first compound 0.0002 µM): 0.637
relative viability ([5]; first compound 0.000632 µM): 0.633
relative viability ([5]; first compound 0.002 µM): 0.644
relative viability ([5]; first compound 0.006325 µM): 0.51
relative viability ([5]; first compound 0.02 µM): 0.473
relative viability ([6]; first compound 0.0002 µM): 0.492
relative viability ([6]; first compound 0.000632 µM): 0.431
relative viability ([6]; first compound 0.002 µM): 0.359
relative viability ([6]; first compound 0.006325 µM): 0.307
relative viability ([6]; first compound 0.02 µM): 0.218
relative viability ([7]; first compound 0.0002 µM): 0.772
relative viability ([7]; first compound 0.000632 µM): 0.788
relative viability ([7]; first compound 0.002 µM): 0.604
relative viability ([7]; first compound 0.006325 µM): 0.463
relative viability ([7]; first compound 0.02 µM): 0.507
relative viability ([8]; first compound 0.0002 µM): 0.183
relative viability ([8]; first compound 0.000632 µM): 0.189
relative viability ([8]; first compound 0.002 µM): 0.18
relative viability ([8]; first compound 0.006325 µM): 0.135
relative viability ([8]; first compound 0.02 µM): 0.116
relative viability ([9]; first compound 0.0002 µM): 0.446
relative viability ([9]; first compound 0.000632 µM): 0.496
relative viability ([9]; first compound 0.002 µM): 0.276
relative viability ([9]; first compound 0.006325 µM): 0.181
relative viability ([9]; first compound 0.02 µM): 0.159
relative viability ([10]; first compound 0.0002 µM): 0.666
relative viability ([10]; first compound 0.000632 µM): 0.533
relative viability ([10]; first compound 0.002 µM): 0.442
relative viability ([10]; first compound 0.006325 µM): 0.394
relative viability ([10]; first compound 0.02 µM): 0.364
relative viability ([11]; first compound 0.0002 µM): 0.608
relative viability ([11]; first compound 0.000632 µM): 0.683
relative viability ([11]; first compound 0.002 µM): 0.646
relative viability ([11]; first compound 0.006325 µM): 0.585
relative viability ([11]; first compound 0.02 µM): 0.354
relative viability ([12]; first compound 0.0002 µM): 0.438
relative viability ([12]; first compound 0.000632 µM): 0.376
relative viability ([12]; first compound 0.002 µM): 0.3
relative viability ([12]; first compound 0.006325 µM): 0.263
relative viability ([12]; first compound 0.02 µM): 0.181
relative viability ([13]; first compound 0.0002 µM): 0.399
relative viability ([13]; first compound 0.000632 µM): 0.613
relative viability ([13]; first compound 0.002 µM): 0.401
relative viability ([13]; first compound 0.006325 µM): 0.345
relative viability ([13]; first compound 0.02 µM): 0.238
relative viability ([14]; first compound 0.000632 µM): 0.468
relative viability ([14]; first compound 0.002 µM): 0.171
relative viability ([14]; first compound 0.006325 µM): 0.153
relative viability ([14]; first compound 0.02 µM): 0.109
relative viability ([15]; first compound 0.0002 µM): 0.532
relative viability ([15]; first compound 0.000632 µM): 0.359
relative viability ([15]; first compound 0.002 µM): 0.278
relative viability ([15]; first compound 0.006325 µM): 0.2
relative viability ([15]; first compound 0.02 µM): 0.18
relative viability ([16]; first compound 0.0002 µM): 0.58
relative viability ([16]; first compound 0.000632 µM): 0.338
relative viability ([16]; first compound 0.002 µM): 0.217
relative viability ([16]; first compound 0.02 µM): 0.191
relative viability ([17]; first compound 0.0002 µM): 0.459
relative viability ([17]; first compound 0.000632 µM): 0.314
relative viability ([17]; first compound 0.002 µM): 0.249
relative viability ([17]; first compound 0.006325 µM): 0.187
relative viability ([17]; first compound 0.02 µM): 0.111
relative viability ([18]; first compound 0.0002 µM): 0.709
relative viability ([18]; first compound 0.000632 µM): 0.731
relative viability ([18]; first compound 0.002 µM): 0.635
relative viability ([18]; first compound 0.006325 µM): 0.425
relative viability ([18]; first compound 0.02 µM): 0.295
relative viability ([19]; first compound 0.0002 µM): 0.445
relative viability ([19]; first compound 0.000632 µM): 0.394
relative viability ([19]; first compound 0.002 µM): 0.376
relative viability ([19]; first compound 0.006325 µM): 0.172
relative viability ([19]; first compound 0.02 µM): 0.0755
relative viability ([20]; first compound 0.0002 µM): 0.375
relative viability ([20]; first compound 0.000632 µM): 0.381
relative viability ([20]; first compound 0.002 µM): 0.347
relative viability ([20]; first compound 0.02 µM): 0.164
